Measurements: patent US20040121969A1, “Antiviral nucleoside derivatives” (Roche Palo Alto LLC, priority 2002, published 2004)

Legend:
Caco-2 cells = assay: Caco-2 cell assay permeability; format: in vitro ADME, Human
Description: For general discussions of the Caco Assay see: S. Yee, “In Vitro Permeability Across Caco-2 Cells (Colonic) Can Predict In Vivo (Small Intestinal) Absorption in Man—Fact or Myth” Pharm. Res. 14(6):763-766 (1997) and Yamashita et. al., “Analysis of Drug Permeation Across Caco-2 Monolayer: Implication for Predicting In Vivo Drug Absorption” Pharm. Res. 14(4):486-491(1997). For specific technical aspects see: Grass, G. M. and Sweetana, S. A. “In Vitro Measurement of Gastrointestinal Tissue Permeability Using a New Diffusion Cell” Pharm. Res. 5(6):372-376 (1988); Rubas et. al., “Comparison of the Permeability Characteristics of a Human Colonic Epithelial (Caco-2) Cell Line to Colon of Rabbit, Monkey, and Dog Intestine and Human Drug Absorption” Pharm. Res. 10(1): 113-117 (1993).
High passage (108-120) Caco-2 cells are cultured in Dulbecco's Modified Eagle Media with high Glucose and L-Glutamine (DMEM) (Gibco/Life Technologies, Cat # 11965-084) supplemented with 10% Fetal Bovine Serum, 1× L-Glutamine (Gibco/Life Technologies, Cat # 25030-081) 1× Penicillin-streptomycin (Gibco/Life Technologies, Cat # 15140-122) 1× Non-essential Amino Acids, (Gibco/Life Technologies, Cat # 11140-019). Cells are maintained in T225 cm^2 Cell Culture Flask Tissue Culture Treated (Costar, Cat # 3001) at 37° C. and 5% CO2. For transport experiments, cells are plated at 7.1×10^4 cells/well into 12-well collagen-coated PTFE membrane polystyrene plates with inserts (Costar # 3493, 12 mm diameter, 0.4 um pore size, sterile, tissue culture treated). Cells are fed every 3 days and maintained at 37° C. and 5% CO2 for 21 days to allow complete formation of a polarized monolayer with tight junctions.
Prepare 5 mg/ml stock solution of test compound in DMSO and store at 4° C. Dilute desired amount of 5 mg/ml stock to 10 mL with pH 6.5 Kreb's Henseleit bicarbonate buffer to give a concentration of 100 μM. Then 1 mL of 100 μM solution was further diluted to 5 mL to make the concentration of 20 μM. This 20 μM test solution was used as initial donor dosing solution (D0). Warm drug solution(s) to 37° C. before use.
1. Prewarm buffer, working solutions, and three 12-well plates containing buffer for each plate of 12 inserts. Using a millicell®-ERS equipped with “chopstick” electrodes (Millipore, Bedford, Mass.) check the TEER. This procedure should be done when the cells are at approximately 37° C., since TEER is effected by temperature. Use only those inserts that have TEER above 300 ohms.
2. Decant media and wash each insert once with warm Kreb's-Henseleit bicarbonate buffer.
3. 0.5 mL pH 6.5 Kreb's-Henseleit buffer was added to apical side of the cell monolayers and 1.25 mL pH 7.4 Kreb's-Henseleit buffer to the basolateral chamber. The cells were equilibrated in 37° C. and 5% CO2 incubator for at least 30 minutes.
4. The apical side buffer was removed and replaced with 0.5 mL 20 μM test solutions.
5. The cells were then incubated at 37° C. and 5% CO2.
6. At 30, 60 and 90 minutes time points, the inserts were transferred to new plates which receiver sides contained 1.25 mL warm fresh pH 7.4 Kreb's-Henseleit buffer.
7. The media from all plates were collected as receiver samples.
8. After 60 min transport studies, Lucifer Yellow (0.05 mL×1000 μM) was added to the apical side of the wells. At the end of the transport studies (90 minutes), the fluorescence of the receiver side samples was measured.
Sample solutions from the donor side were collected at the end of the experiments as D90 samples. The dC/dt of test substance was calculated from sampling data at […] (assume 0 ng/mL) and 60 minutes. The apparent permeability coefficient (Papp) was calculated from the following equation, [formula] […]

human mononuclear cells = conditions: treatment of human mononuclear cells; cited from earlier work
[1] = background statement; cited from earlier work
[2] = apparent permeability coefficient (Papp), apical pH 6.5 to basolateral pH 7.4, 20 μM test solution, 37° C.

With “2S-amino-3-methyl-butyric acid 4S-(2S-amino-3-methyl-butyryloxy)-5S-(3-carbamoyl-[1,2,4]triazol-1-yl)-2S-hydroxymethyl-tetrahydrofuran-3S-yl ester dihydrochloride [Compound 3]” as the compound, how does the Caco-2 permeability (Caco-2 cells; [2]) read?
The Caco-2 permeability was 8.6 ×10⁻⁶ cm/s.

For `CCC(=O)OC[C@@H]1O[C@H](n2cnc(C(N)=O)n2)[C@@H](OC(=O)CC)[C@H]1OC(=O)CC` [Compound 2, propionic acid 3S,4S-bis-propionyloxy-5S-(3-carbamoyl-[1,2,4]triazol-1-yl)-tetrahydro-furan-2S-ylmethyl ester], which Caco-2 permeability (Caco-2 cells; [2]) is on record?
Its Caco-2 permeability is 7.8 ×10⁻⁶ cm/s.

Which Caco-2 permeability (Caco-2 cells; [2]) does the source give for `CC(C)[C@H](N)C(=O)OC[C@@H]1O[C@H](n2cnc(C(N)=O)n2)[C@@H](O)[C@H]1O.Cl` [Compound 5, 2S-amino-3-methyl-butyric acid 5S-(3-carbamoyl-[1,2,4]triazol-1-yl)-3R,4S-dihydroxy-tetrahydro-furan-2S-ylmethyl ester, hydrochloride] here?
Its Caco-2 permeability is 5.6 ×10⁻⁶ cm/s.

With `C[C@H](N)C(=O)OC[C@@H]1O[C@H](n2cnc(C(N)=O)n2)[C@@H](O)[C@H]1O.Cc1ccc(S(=O)(=O)O)cc1` [Compound 7, 2S-amino-propionic acid 5S-(3-carbamoyl-[1,2,4]triazol-1-yl)-3R,4S-dihydroxy-tetrahydro-furan-2S-ylmethyl ester; compound with toluene-4-sulfonic acid] as the compound, how does the Caco-2 permeability (Caco-2 cells; [2]) read?
Its Caco-2 permeability is 1.2 ×10⁻⁶ cm/s.

Which Caco-2 permeability (Caco-2 cells; [2]) does the source give for `CC(C)C[C@H](N)C(=O)OC[C@@H]1O[C@H](n2cnc(C(N)=O)n2)[C@@H](O)[C@H]1O.Cc1ccc(S(=O)(=O)O)cc1` [Compound 9, 2S-amino-4-methyl-pentanoic acid 5S-(3-carbamoyl-[1,2,4]triazol-1-yl)-3R,4S-dihydroxy-tetrahydro-furan-2S-ylmethyl ester; compound with toluene-4-sulfonic acid] here?
Its Caco-2 permeability is 0.9 ×10⁻⁶ cm/s.

Which Caco-2 permeability (Caco-2 cells; [2]) does the source give for `CC[C@H](C)[C@H](N)C(=O)OC[C@@H]1O[C@H](n2cnc(C(N)=O)n2)[C@@H](O)[C@H]1O.Cc1ccc(S(=O)(=O)O)cc1` [Compound 10, 2S-amino-3S-methyl-pentanoic acid 5S-(3-carbamoyl-[1,2,4]triazol-1-yl)-3R,4S-dihydroxy-tetrahydro-furan-2S-ylmethyl ester; compound with toluene-4-sulfonic acid] here?
The Caco-2 permeability was 1.5 ×10⁻⁶ cm/s.

For `CC(C)C(=O)O[C@@H]1[C@H](OC(=O)C(C)C)[C@@H](n2cnc(C(N)=O)n2)O[C@H]1CO` [Compound 17, isobutyric acid 2S-(3-carbamoyl-[1,2,4]triazol-1-yl)-5S-hydroxymethyl-4S-isobutyryloxy-tetrahydro-furan-3S-yl ester], which Caco-2 permeability (Caco-2 cells; [2]) is on record?
The Caco-2 permeability was 4.8 ×10⁻⁶ cm/s.

With `CC(C)[C@H](N)C(=O)N1CCC[C@H]1C(=O)OC[C@@H]1O[C@H](n2cnc(C(N)=O)n2)[C@@H](O)[C@H]1O.Cl` [Compound 18, 1-(2S-amino-3-methyl-butyryl)-pyrrolidine-2S-carboxylic acid 5S-(3-carbamoyl-[1,2,4]triazol-1-yl)-3R,4S-dihydroxy-tetrahydro-furan-2S-ylmethyl ester, hydrochloride] as the compound, how does the Caco-2 permeability (Caco-2 cells; Caco-2) read?
The Caco-2 permeability was 3.4 ×10⁻⁶ cm/s.

For `NC(=O)c1ncn([C@H]2O[C@@H](CO)[C@H](OC(=O)c3ccccc3)[C@@H]2OC(=O)c2ccccc2)n1` [Compound 28, benzoic acid 4S-benzoyloxy-5S-(3-carbamoyl-[1,2,4]triazol-1-yl)-2S-hydroxymethyl-tetrahydro-furan-3S-yl ester], which Caco-2 permeability (Caco-2 cells; [2]) is on record?
The Caco-2 permeability was 26.6 ×10⁻⁶ cm/s.

With `CCCCCCCC(=O)OC[C@@H]1O[C@H](n2cnc(C(N)=O)n2)[C@@H](O)[C@H]1O` [Compound 34, octanoic acid 5S-(3-carbamoyl-[1,2,4]triazol-1-yl)-3R,4S-dihydroxy-tetrahydrofuran-2S-ylmethyl ester] as the compound, how does the Caco-2 permeability (Caco-2 cells; [2]) read?
The Caco-2 permeability was 6.5 ×10⁻⁶ cm/s.

With `NC(=O)c1ncn([C@@H]2O[C@H](CO)[C@@H](O)[C@H]2O)n1` [Ib, ribavirin] as the compound, how does the “levels of IL-2, TNFα and IFNΓ” value (human mononuclear cells) read?
Its value is “elevated levels”.

For `NC(=O)c1ncn([C@H]2O[C@@H](CO)[C@@H](O)[C@H]2O)n1` [levovirin, Levovirin], which “dose absorbed systemically after oral administration” value [1] is on record?
The value was “about 15%”.
